In patent US8273758B2, “Substituted tricyclic derivatives” (Sanofi, priority 2008, dated 2012):

Columns and labels:
GSK3β = GSK3β (Homo sapiens, UniProt P49841); experiment: Inhibitory activity against GSK3β (33P-ATP phosphorylation of prephosphorylated GS1 peptide); assay type: biochemical; conditions: protocol 3: 7.5 μM GS1 peptide, 10 μM ATP, 50 mM Hepes pH 7.2, one hour, room temperature
Procedure: Four different protocols can be used.
In a first protocol: 7.5 μM of prephosphorylated GS1 peptide and 10 μM ATP (containing 300,000 cpm of ^33P-ATP) were incubated in 25 mM Tris-HCl, pH 7.5, 0.6 mM DTT, 6 mM MgCl2, 0.6 mM EGTA, 0.05 mg/ml BSA buffer for 1 hour at room temperature in the presence of GSK3beta (total reaction volume: 100 microliters).
In a second protocol: 4.1 μM of prephosphorylated GS1 peptide and 42 μM ATP (containing 260,000 cpm ^33P-ATP) were incubated in 80 mM Mes-NaOH, pH 6.5, 1 mM Mg acetate, 0.5 mM EGTA, 5 mM 2-mercaptoethanol, 0.02% Tween 20, 10% glycerol buffer for 2 hours at room temperature in the presence of GSK3beta.
In a third protocol: 7.5 μM of prephosphorylated GS1 peptide and 10 μM ATP (containing 300,000 cpm of ^33P-ATP) were incubated in 50 mM Hepes, pH 7.2, 1 mM DTT, 1 mM MgCl2, 1 mM EGTA, 0.01% Tween 20 buffer for one hour at room temperature in the presence of GSK3beta (total reaction volume: 100 microliters). […]
The reaction was stopped with 100 microliters of a solution made of 25 g polyphosphoric acid (85% P2O5), 126 ml 85% H3PO4, H2O to 500 ml and then diluted to 1:100 before use. […] Incorporated ^33P radioactivity was determined by liquid scintillation spectrometry. […]

Sequence of GSK3β (P49841 whole entry): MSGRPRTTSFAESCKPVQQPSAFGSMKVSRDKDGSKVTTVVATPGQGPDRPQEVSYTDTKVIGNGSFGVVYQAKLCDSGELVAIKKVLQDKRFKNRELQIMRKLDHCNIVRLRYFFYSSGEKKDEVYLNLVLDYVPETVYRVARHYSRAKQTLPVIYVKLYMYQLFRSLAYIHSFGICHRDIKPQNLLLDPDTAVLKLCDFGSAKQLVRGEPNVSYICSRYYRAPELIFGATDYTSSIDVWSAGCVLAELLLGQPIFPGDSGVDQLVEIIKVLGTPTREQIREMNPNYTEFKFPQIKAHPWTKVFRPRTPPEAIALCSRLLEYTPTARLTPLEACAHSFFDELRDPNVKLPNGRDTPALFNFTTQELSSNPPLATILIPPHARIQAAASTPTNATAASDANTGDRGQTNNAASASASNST

melting point: 263 to 265 °C | IC50 (GSK3β): 6 nM
Compound: O=C(CN1c2ccccc2Cn2c1nc(-c1ccncn1)cc2=O)c1ccccc1 [Compound No. 3, 9-(2-Oxo-2-phenyl-ethyl)-2-pyrimidin-4-yl-9,10-dihydro-1,4a,9-triaza-anthracen-4-one]
